Experiments:
[1] = in vitro; settings: human, CC50
Text: (§1) Inspired by our previous research on heteroaromatic-biphenyl-DAPYs[15], the 4-cyanophenyl group on the biphenyl moiety was replaced with a privileged 4-pyridyl group for further evaluation.

[2] = tested on: HIV-1 (IIIB); assay: microbe, parasite or virus in culture; type: cell-based; settings: for EC50: Human immunodeficiency virus 1, IIIB, MT4, WT HIV-1, protection of MT-4 cells against HIV-induced cytopathogenicity, mean ± SD, n ≥ 3; for SI (IIIB): selectivity index, ratio CC50/EC50
Text: as §1

With `N#Cc1ccc(Nc2ncc(F)c(Oc3ccc(-c4ccncc4)cc3Cl)n2)cc1` [A14, 4-((4-(2-Chloro-4-(pyridin-4-yl)phenoxy)-5-fluoropyrimidin-2-yl)amino)benzonitrile] the CC50 [1] was over 48000 nM, the EC50 [2] was 12 ± 3.1 nM and the “SI (IIIB)” value [2] was over 3846.

With `COc1cc(-c2ccncc2)ccc1Nc1nc(Nc2ccc(C#N)cc2)ncc1F` [A22, 4-((5-Fluoro-4-((2-methoxy-4-(pyridin-4-yl)phenyl)amino)pyrimidin-2-yl)amino)benzonitrile] the CC50 [1] was over 49000 nM, the EC50 [2] was 8 ± 2.7 nM and the “SI (IIIB)” value [2] was over 6154.

In the case of `N#Cc1ccc(Nc2ncc(Cl)c(Nc3ccc(-c4ccc(C#N)cc4)cc3Cl)n2)cc1` [B7, 3′-Chloro-4′-((5-chloro-2-((4-cyanophenyl)amino)pyrimidin-4-yl)amino)-[1,1′-biphenyl]-4-carbonitrile], the CC50 [1] is reported as over 273000 nM, the EC50 [2] is reported as 46 ± 13 nM and the “SI (IIIB)” value [2] is reported as over 6026.

With `N#Cc1ccc(Nc2ncc(Cl)c(Oc3ccc(-c4ccc(C#N)cc4)cc3Cl)n2)cc1` [B2, 3′-Chloro-4′-((5-chloro-2-((4-cyanophenyl)amino)pyrimidin-4-yl)oxy)-[1,1′-biphenyl]-4-carbonitrile] the CC50 [1] was 35000 ± 7300 nM, the EC50 [2] was 8.7 ± 2 nM and the “SI (IIIB)” value [2] was 3949.

For `COc1cc(-c2ccc(C#N)cc2)ccc1Oc1nc(Nc2ccc(C#N)cc2)ncc1Cl` [B4, 4′-((5-Chloro-2-((4-cyanophenyl)amino)pyrimidin-4-yl)oxy)-3′-methoxy-[1,1′-biphenyl]-4-carbonitrile], the CC50 [1] was 11000 ± 3700 nM, the EC50 [2] was 26 ± 13 nM and the “SI (IIIB)” value [2] was 412.

With `N#Cc1ccc(Nc2ncc(F)c(Nc3ccc(-c4ccc(C#N)cc4)cc3Cl)n2)cc1` [A8, 3′-Chloro-4′-((2-((4-cyanophenyl)amino)-5-fluoropyrimidin-4-yl)amino)-[1,1′-biphenyl]-4-carbonitrile] the CC50 [1] was over 45000 nM, the EC50 [2] was 43 ± 23 nM and the “SI (IIIB)” value [2] was over 1038.

With `Cc1cc(-c2ccc(C#N)cc2)cc(C)c1Oc1nc(Nc2ccc(C#N)cc2)ncc1Cl` [B5, 4′-((5-Chloro-2-((4-cyanophenyl)amino)pyrimidin-4-yl)oxy)-3′,5′-dimethyl-[1,1′-biphenyl]-4-carbonitrile] the CC50 [1] was 39000 ± 9100 nM, the EC50 [2] was 11 ± 4.2 nM and the “SI (IIIB)” value [2] was 3478.

With `Cc1cc(-c2ccc(C#N)cc2)cc(C)c1Oc1nc(Nc2ccc(C#N)cc2)ncc1F` [A6, 4′-((2-((4-Cyanophenyl)amino)-5-fluoropyrimidin-4-yl)oxy)-3′,5′-dimethyl-[1,1′-biphenyl]-4-carbonitrile] the CC50 [1] was 219000 ± 12000 nM, the EC50 [2] was 7.1 ± 3.2 nM and the “SI (IIIB)” value [2] was 30,805.

For `COc1cc(-c2ccncc2)ccc1Oc1nc(Nc2ccc(C#N)cc2)ncc1Cl` [B15, 4-((5-Chloro-4-(2-methoxy-4-(pyridin-4-yl)phenoxy)pyrimidin-2-yl)amino)benzonitrile], the CC50 [1] was over 47000 nM, the EC50 [2] was 6.7 ± 2.3 nM and the “SI (IIIB)” value [2] was over 6897.

In the case of `Cc1cc(-c2ccncc2)cc(C)c1Oc1nc(Nc2ccc(C#N)cc2)ncc1Cl` [B16, 4-((5-Chloro-4-(2,6-dimethyl-4-(pyridin-4-yl)phenoxy)pyrimidin-2-yl)amino)benzonitrile], the CC50 [1] is reported as 243000 ± 62000 nM, the EC50 [2] is reported as 105 ± 51 nM and the “SI (IIIB)” value [2] is reported as 2327.

For `Cc1cc(-c2ccc(C#N)cc2)ccc1Oc1nc(Nc2ccc(C#N)cc2)ncc1Cl` [B3, 4′-((5-Chloro-2-((4-cyanophenyl)amino)pyrimidin-4-yl)oxy)-3′-methyl-[1,1′-biphenyl]-4-carbonitrile], the CC50 [1] was over 46000 nM, the EC50 [2] was 7.1 ± 1.6 nM and the “SI (IIIB)” value [2] was over 6542.

In the case of `Cc1cc(-c2ccc(C#N)cc2)ccc1Oc1nc(Nc2ccc(C#N)cc2)ncc1F` [A3, 4′-((2-((4-Cyanophenyl)amino)-5-fluoropyrimidin-4-yl)oxy)-3′-methyl-[1,1′-biphenyl]-4-carbonitrile], the CC50 [1] is reported as over 48000 nM, the EC50 [2] is reported as 7.6 ± 2.6 nM and the “SI (IIIB)” value [2] is reported as over 6349.

In the case of `N#Cc1ccc(Nc2ncc(Cl)c(Oc3ccc(-c4ccncc4)cc3F)n2)cc1` [B12, 4-((5-Chloro-4-(2-fluoro-4-(pyridin-4-yl)phenoxy)pyrimidin-2-yl)amino)benzonitrile], the CC50 [1] is reported as over 48000 nM, the EC50 [2] is reported as 7.7 ± 1.9 nM and the “SI (IIIB)” value [2] is reported as over 6173.

For `COc1cc(-c2ccc(C#N)cc2)ccc1Nc1nc(Nc2ccc(C#N)cc2)ncc1F` [A10, 4′-((2-((4-Cyanophenyl)amino)-5-fluoropyrimidin-4-yl)amino)-3′-methoxy-[1,1′-biphenyl]-4-carbonitrile], the CC50 [1] was over 46000 nM, the EC50 [2] was 23 ± 18 nM and the “SI (IIIB)” value [2] was over 1961.

In the case of `N#Cc1ccc(Nc2ncc(F)c(Nc3ccc(-c4ccncc4)cc3Cl)n2)cc1` [A20, 4-((4-((2-Chloro-4-(pyridin-4-yl)phenyl)amino)-5-fluoropyrimidin-2-yl)amino)benzonitrile], the CC50 [1] is reported as over 48000 nM, the EC50 [2] is reported as 10 ± 1.7 nM and the “SI (IIIB)” value [2] is reported as over 4819.

With `Cc1cc(-c2ccncc2)cc(C)c1Nc1nc(Nc2ccc(C#N)cc2)ncc1Cl` [B22, 4-((5-Chloro-4-((2,6-dimethyl-4-(pyridin-4-yl)phenyl)amino)pyrimidin-2-yl)amino)benzonitrile] the CC50 [1] was 260000 ± 6500 nM, the EC50 [2] was 8.9 ± 0.7 nM and the “SI (IIIB)” value [2] was 29,634.

With `N#Cc1ccc(Nc2ncc(F)c(Oc3c(F)cc(-c4ccncc4)cc3F)n2)cc1` [A17, 4-((4-(2,6-Difluoro-4-(pyridin-4-yl)phenoxy)-5-fluoropyrimidin-2 yl)amino)benzonitrile] the CC50 [1] was over 48000 nM, the EC50 [2] was 11 ± 4.1 nM and the “SI (IIIB)” value [2] was over 4396.

In the case of `N#Cc1ccc(Nc2ncc(Cl)c(Nc3ccc(-c4ccncc4)cc3F)n2)cc1` [B17, 4-((5-Chloro-4-((2-fluoro-4-(pyridin-4-yl)phenyl)amino)pyrimidin-2-yl)amino)benzonitrile], the CC50 [1] is reported as over 48000 nM, the EC50 [2] is reported as 142 ± 14 nM and the “SI (IIIB)” value [2] is reported as over 342.

For `N#Cc1ccc(Nc2ncc(F)c(Oc3c(F)cc(-c4ccc(C#N)cc4)cc3F)n2)cc1` [A5, 4′-((2-((4-Cyanophenyl)amino)-5-fluoropyrimidin-4-yl)oxy)-3′,5′-difluoro-[1,1′-biphenyl]-4-carbonitrile], the CC50 [1] was over 45000 nM, the EC50 [2] was 6.3 ± 3.2 nM and the “SI (IIIB)” value [2] was over 7143.

For `N#Cc1ccc(Nc2ncc(Cl)c(Nc3ccc(-c4ccc(C#N)cc4)cc3F)n2)cc1` [B6, 4′-((5-Chloro-2-((4-cyanophenyl)amino)pyrimidin-4-yl)amino)-3′-fluoro-[1,1′-biphenyl]-4-carbonitrile], the CC50 [1] was over 45000 nM, the EC50 [2] was 12 ± 2.7 nM and the “SI (IIIB)” value [2] was over 3911.

For `N#Cc1ccc(Nc2ncc(Cl)c(Oc3ccc(-c4ccncc4)cc3Cl)n2)cc1` [B13, 4-((5-Chloro-4-(2-chloro-4-(pyridin-4-yl)phenoxy)pyrimidin-2-yl)amino)benzonitrile], the CC50 [1] was over 46000 nM, the EC50 [2] was 6.2 ± 1.6 nM and the “SI (IIIB)” value [2] was over 7477.

In the case of `N#Cc1ccc(Nc2ncc(F)c(Oc3ccc(-c4ccc(C#N)cc4)cc3Cl)n2)cc1` [A2, 3′-Chloro-4′-((2-((4-cyanophenyl)amino)-5-fluoropyrimidin-4-yl)oxy)-[1,1′-biphenyl]-4-carbonitrile], the CC50 [1] is reported as over 45000 nM, the EC50 [2] is reported as 27 ± 25 nM and the “SI (IIIB)” value [2] is reported as over 1670.

In the case of `Cc1cc(-c2ccncc2)ccc1Oc1nc(Nc2ccc(C#N)cc2)ncc1F` [A15, 4-((5-Fluoro-4-(2-methyl-4-(pyridin-4-yl)phenoxy)pyrimidin-2-yl)amino)benzonitrile], the CC50 [1] is reported as over 50000 nM, the EC50 [2] is reported as 11 ± 2.5 nM and the “SI (IIIB)” value [2] is reported as over 4734.

For `N#Cc1ccc(Nc2ncc(F)c(Nc3c(F)cc(-c4ccncc4)cc3F)n2)cc1` [A23, 4-((4-((2,6-Difluoro-4-(pyridin-4-yl)phenyl)amino)-5-fluoropyrimidin-2-yl)amino)benzonitrile], the CC50 [1] was 21000 ± 18000 nM and the EC50 [2] was 7.6 ± 1.2 nM.

With `N#Cc1ccc(Nc2ncc(Cl)c(Nc3c(F)cc(-c4ccncc4)cc3F)n2)cc1` [B21, 4-((5-Chloro-4-((2,6-difluoro-4-(pyridin-4-yl)phenyl)amino)pyrimidin-2-yl)amino)benzonitrile] the CC50 [1] was 1300 ± 300 nM, the EC50 [2] was 2 ± 0.7 nM and the “SI (IIIB)” value [2] was 680.

For `N#Cc1ccc(Nc2ncc(Cl)c(Nc3ccc(-c4ccncc4)cc3Cl)n2)cc1` [B18, 4-((5-Chloro-4-((2-chloro-4-(pyridin-4-yl)phenyl)amino)pyrimidin-2-yl)amino)benzonitrile], the CC50 [1] was over 46000 nM, the EC50 [2] was 83 ± 69 nM and the “SI (IIIB)” value [2] was over 563.

For `N#Cc1ccc(Nc2ncc(F)c(Oc3ccc(-c4ccncc4)cc3F)n2)cc1` [A13, 4-((5-Fluoro-4-(2-fluoro-4-(pyridin-4-yl)phenoxy)pyrimidin-2-yl)amino)benzonitrile], the CC50 [1] was over 50000 nM, the EC50 [2] was 9.7 ± 3.7 nM and the “SI (IIIB)” value [2] was over 5147.

In the case of `Cc1cc(-c2ccncc2)ccc1Nc1nc(Nc2ccc(C#N)cc2)ncc1F` [A21, 4-((5-Fluoro-4-((2-methyl-4-(pyridin-4-yl)phenyl)amino)pyrimidin-2-yl)amino)benzonitrile], the CC50 [1] is reported as over 51000 nM, the EC50 [2] is reported as 6.1 ± 1.3 nM and the “SI (IIIB)” value [2] is reported as over 8421.

For `Cc1cc(-c2ccncc2)ccc1Oc1nc(Nc2ccc(C#N)cc2)ncc1Cl` [B14, 4-((5-Chloro-4-(2-methyl-4-(pyridin-4-yl)phenoxy)pyrimidin-2-yl)amino)benzonitrile], the CC50 [1] was over 48000 nM, the EC50 [2] was 48 ± 22 nM and the “SI (IIIB)” value [2] was over 1005.

For `Cc1cc(-c2ccc(C#N)cc2)ccc1Nc1nc(Nc2ccc(C#N)cc2)ncc1Cl` [B8, 4′-((5-Chloro-2-((4-cyanophenyl)amino)pyrimidin-4-yl)amino)-3′-methyl-[1,1′-biphenyl]-4-carbonitrile], the CC50 [1] was over 46000 nM, the EC50 [2] was 8.2 ± 1.6 nM and the “SI (IIIB)” value [2] was over 5556.

In the case of `Cc1cc(-c2ccncc2)ccc1Nc1nc(Nc2ccc(C#N)cc2)ncc1Cl` [B19, 4-((5-Chloro-4-((2-methyl-4-(pyridin-4-yl)phenyl)amino)pyrimidin-2-yl)amino)benzonitrile], the CC50 [1] is reported as over 48000 nM, the EC50 [2] is reported as 44 ± 9.7 nM and the “SI (IIIB)” value [2] is reported as over 1122.

With `N#Cc1ccc(Nc2ncc(Cl)c(Oc3ccc(-c4ccc(C#N)cc4)cc3F)n2)cc1` [B1, 4′-((5-Chloro-2-((4-cyanophenyl)amino)pyrimidin-4-yl)oxy)-3′-fluoro-[1,1′-biphenyl]-4-carbonitrile] the CC50 [1] was 39000 ± 12000 nM, the EC50 [2] was 8.4 ± 3.4 nM and the “SI (IIIB)” value [2] was 4572.

— article PMC12399242 (Acta Pharmaceutica Sinica. B, 2025)
